Data published in patent US20060275856A1, “Method for analyzing cell free notch cleavage and method for drug screening” (OSAKA INDUSTRIAL PROMOTION ORGANIZATION, priority 2003, published 2006).
Values belong to the molecule of their own block, whether it stands above or below them.

How the values were obtained:
[1] = target: T1, presenilin/γ-secretase (Homo sapiens, UniProt P49768); assay: Multiple substrate cell-free assay system combining βAPP and Notch-1 (IP/MALDI-TOF MS of Aβ, AICD, F-Nβ, NICDΔC); type: biochemical
T1 construct: A crude purified membrane fraction of K293 cells co-expressing F-NEXTΔC and swβAPP; endogenous in cells; host or cells: K293 (human embryonic kidney 293) cells co-expressing F-NEXTΔC and swβAPP; crude membrane fraction (CMF)
Method: In the case of cell-free γ-secretase assay, MS washing buffer composed of 4 time amount or more of 0.1% n-octylglucoside, 140 mM NaCl, 10 mM Tris (pH 8.0) and 0.025% sodium azide was added to an S1 or S2 fraction which was the supernatant of ultracentrifugation after the assay. The mixture was immunoprecipitated at 4° C. for 4 hours using 6636, 6618, 4G8 or M2 agarose. After the immunoprecipitation, the precipitate was washed three times at 4° C. for 10 minutes using the MS washing buffer. The precipitate was washed once more with 10 mM Tris (pH 8.0) containing 0.025% sodium azide, and then simply washed once more with water. A peptide bound to the specific antibody in the precipitate consequently obtained was eluted with TFA/acetonitrile/water (TFA: acetonitrile: water=1:20:20) saturated with α-cyano-4-hydroxy cinnamic acid. The solubilized sample was dried on a stainless plate, and analyzed by MALDI-TOF MS. MS peaks were calibrated by angiotensin (Sigma) and insulin β chain (Sigma).
Human embryonic kidney 293 cells (K293 cells) in which F-NEXTΔC and Sweden type mutant βAPP (swβAPP) had been constitutively co-expressed were made by transfecting with the Sweden type mutant βAPP using Lipofectamine 2000 (Invitrogen), selecting by G418 and subsequently, transfecting the cells expressing βAPP with F-NEXTΔC. It was confirmed first that F-NEXTΔC and swβAPP had been expressed in the lysate of this cell, and simultaneously that F-Nβ and Aβ had been released in the culture supernatant (FIG. 5A to 5C). The composition of F-Nβ and Aβ molecular species were examined and it was confirmed that they were not inconsistent with previous reports (results are not shown).
A crude purified membrane fraction of K293 cells co-expressing F-NEXTΔC and swβAPP, pretreated with 100 nM of L685,458 or 100 nM of DAPT for 2 hours before extracting the membrane fraction was used. The S1-40 min fraction was collected from this crude purified membrane fraction. The precipitate fraction after collecting the S1-40 min fraction was resuspended in the reaction buffer, and then sonicated for a short time. Subsequently the fraction was centrifuged at 100,000×g for 15 minutes to collect the supernatant fraction as the S2-40 min fraction.
The fractions were immunoprecipitated with the antibody specific for each fragment (4G8 for Aβ, 6618 for AICD, M2 agarose for F-Nβ and […] for NICDΔC), and analyzed using the MALDI-TOF mass analyzer (FIG. 8). NICDΔC and AICD de novo produced were identified in the S1-40 min fraction. F-Nβ and Aβ were identified in the S2-40 min fraction (FIG. 8). Even when the change was added to the multiple substrate cell-free assay system combining βAPP and Notch-1, the diversity in the proteolytic sites by the presenilin/γsecretase was conserved.
The cells co-expressing F-NEXTΔC and swβAPP were cultured up to the confluent phase, and treated with the γ-secretase inhibitor at each concentration for 3 hours. As the γ-secretase inhibitor, L685,458 which was a transition-state analogue which binds to an active center of the presenilin/γ-secretase and DAPT which was not the transition-state analogue were used. The cells after the treatment were washed twice with ice-cooled PBS to collect. These cells were lysed and homogenated to extract CMF. Subsequently, this membrane fraction was suspended in alkaline washing buffer and left stand at 4° C. for 30 minutes. Then, the resuspension and the centrifugation were repeated three times using the reaction buffer to wash out the alkaline washing buffer. It appears that most γ-secretase inhibitor contained in CMF was washed out until this process. Finally, CMF was suspended once more in the reaction buffer, and the cell-free reaction was performed. The amounts of AICD and NICDΔC in the S1-40 min fraction and the amounts of Aβ and Nβ in the S2-40 min fraction were semi-quantified from relative heights of MALDI-TOF MS peaks, and evaluated by four scales of −, +, ++ and +++.

[2] = target: T1, presenilin/γ-secretase; assay: Pulse-chase experiment: secretion of F-Nβ from K293 cells expressing F-NEXTΔC or F-NEXT; type: cell-based; settings: 1 μM, pretreating for 2 hours (FIG. 4D)
Method: In order to determine whether an N terminal fragment (NTF: F-Nβ) was released from the cells which had expressed F-NEXTΔC or F-NEXT as a result of proteolysis by presenilin/γ-secretase, the cells (K293 cells) which had stably expressed F-NEXTΔC or F-NEXT were cultured in a 10 cm dish up to a confluent phase. The cells were cultured in DMEM solution deprived of methionine (obtained by modifying a commercially available one from Gibco) for 45 minutes to be starved with methionine. Subsequently, the medium was replaced with the same DMEM solution deprived of methionine, and simultaneously the cells were metabolically pulse-labeled with 300 μCi of [^35S]-methionine/cysteine (Pro-mix, Amersham) for 30 minutes. Then the cells were chased in 10% FCS/DMEM for 2 hours.
After termination of a chase period, the medium was collected and immediately placed on ice. Then cell debris was eliminated by centrifuging at 3,000×g. Subsequently, a protease inhibitor cocktail (1:1000, Sigma) and 0.025% sodium azide were added. The sample was immunoprecipitated with 4G8 antibody or anti-FLAG-M2-agarose (Sigma) overnight, and a precipitate was washed three times with RIPA buffer containing 0.1% SDS, 0.5% deoxycholic acid and 1% Triton X-100. Subsequently, SDS-PAGE was performed using 10 to 20% gradient gel of Tris-tricine (Invitrogen). […]

[3] = target: T1, presenilin/γ-secretase; assay: Multiple substrate cell-free assay system combining βAPP and Notch-1 (IP/MALDI-TOF MS of Aβ, AICD, F-Nβ, NICDΔC); type: biochemical; settings: cells pretreated at 1 μM and further 1 μM added in all buffers including homogenate and reaction buffer
[4] = test system: FLAG-NEXT
Sequence of FLAG-NEXT (chain, as listed by the source): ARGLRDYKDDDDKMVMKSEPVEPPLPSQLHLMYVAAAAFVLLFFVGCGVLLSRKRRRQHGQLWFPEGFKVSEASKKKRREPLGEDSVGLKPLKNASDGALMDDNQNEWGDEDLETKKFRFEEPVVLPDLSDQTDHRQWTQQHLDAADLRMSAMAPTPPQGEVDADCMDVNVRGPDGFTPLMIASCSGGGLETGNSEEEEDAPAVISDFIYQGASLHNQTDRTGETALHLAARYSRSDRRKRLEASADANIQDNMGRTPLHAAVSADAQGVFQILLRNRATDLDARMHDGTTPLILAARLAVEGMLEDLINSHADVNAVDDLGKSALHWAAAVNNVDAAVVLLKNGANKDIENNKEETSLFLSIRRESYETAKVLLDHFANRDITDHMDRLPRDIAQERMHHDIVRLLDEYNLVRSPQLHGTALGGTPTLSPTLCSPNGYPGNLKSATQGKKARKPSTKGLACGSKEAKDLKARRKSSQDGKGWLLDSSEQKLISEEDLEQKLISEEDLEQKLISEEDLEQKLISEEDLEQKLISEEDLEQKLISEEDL

[5] = test system: F-NEXT V1744G
[6] = test system: F-NEXT V1744L
[7] = pretreated at 1 μM, thoroughly washed out

action on γ49 and corresponding S3 cleavage [1]: less sensitively
action upon γ40 and corresponding S4 cleavage [1]: acted sensitively
effects on the four fragments compared with L685,458 ([1]; same pretreatment experiment (FIGS. 9A and 9B)): extremely similar
Molecule: C[C@H](NC(=O)Cc1cc(F)cc(F)c1)C(=O)N[C@H](C(=O)OC(C)(C)C)c1ccccc1 [DAPT]

action on γ49 and corresponding S3 cleavage [1]: less sensitively
action upon γ40 and corresponding S4 cleavage [1]: acted sensitively
Aβ/Nβ, γ cleaved NTF (S4/γ40 cleavage) [1, 7]: not observed
de novo production of AUCD/NICD which was γ cleaved CTF (S3/γ49 cleavage) [1, 7]: recognized
peak heights of four fragments ([1]; pretreated with 10 nM): maximum on average
de novo production of F-Nβ/Aβ ([1]; pretreatment concentration decreased to 100 nM and 10 nM): recovered
secretion of F-Nβ [2]: almost completely inhibited
production of F-Nβ, Aβ, NICDΔC and AICD (all of four fragments) [3]: not observed at all
Molecule: CC(C)C[C@H](NC(=O)[C@H](Cc1ccccc1)C[C@@H](O)[C@H](Cc1ccccc1)NC(=O)OC(C)(C)C)C(=O)N[C@@H](Cc1ccccc1)C(N)=O [L685,458]

Molecule: PS1 D385N, dominant negative mutant of presenilin, stably expressed in K293 cells
NICD production and decrease of F-NEXT after 2 hours' chase [4]: not only the NICD production but also the decrease of F-NEXT and its derivatives were not observed after 2 hours' chase
NICD production and decrease of the F-NEXT derivative after 2 hours' chase [5]: not only the NICD production but also the decrease of F-NEXT and its derivatives were not observed after 2 hours' chase
NICD production and decrease of the F-NEXT derivative after 2 hours' chase [6]: not only the NICD production but also the decrease of F-NEXT and its derivatives were not observed after 2 hours' chase

Molecule: wild type PS1 (presenilin), stably expressed in K293 cells
degradation of the F-NEXT derivative during 2 hours' chase [5]: F-NEXT V1744G and F-NEXT V1744L in the background of wild presenilin were degraded and their amounts were decreased during 2 hours' chase as with F-NEXT
degradation of the F-NEXT derivative during 2 hours' chase [6]: F-NEXT V1744G and F-NEXT V1744L in the background of wild presenilin were degraded and their amounts were decreased during 2 hours' chase as with F-NEXT
